{"source": "patent US20130108573A1", "about": "“Bile Acid Recycling Inhibitors for Treatment of Hypercholemia and Cholestatic Liver Disease” (Lumena Pharmaceuticals, Inc., priority 2011, published 2013)", "key": {"Dog Serum Bile Acids [1]": {"tested_on": "Dog Serum Bile Acids", "test": "Time to onset of activity of LUM001 on postprandial serum bile acids in beagle dogs", "type": "in vivo", "conditions": "for Serum Bile Acid, Mean: dogs n = 6, fed at 0 min, dosed at 60 min", "procedure": "(§1) LUM001 was dissolved in water at concentrations that required the administration of 0.2 ml/kg of solution. Solutions were placed into gelatin capsules, Torpac Inc., size 13 Batch 594, East Hanover N.J., and administered orally.\n(§2) Male beagle dogs were obtained from Covance Research Products, Cumberland Va. or Marshall Farms USA, Inc., North Rose N.Y. A total of 20 dogs, 1 to 5 years old, 6.8 to 15.6 kg body weight, were used in these experiments. The dogs were conditioned to a 12 hour light/dark cycle and maintained on a feeding restriction of 1 hour per day access to food (Richman Standard Certified Canine Diet #5007, PMI Nutrition, Inc., St Louis Mo.) from 7 to 8 AM. They were trained to eat a special meal promptly within 20 minutes when presented (1 can. 397 g, Evanger's 100% Beef for Dogs, Evanger's Dog and Cat Food Co., Inc., Wheeling Ill., mixed with 50 g of sharp cheddar cheese.).\n(§3) SBA was measured by an enzymatic assay. SBA values are expressed as μg of total bile acids/ml of serum.\nTo estimate the details of this plateau, 6 dogs were given a test meal and blood samples for SBA measurement were collected at −30, 0, 30, 60, 65, 70, 80, 90, 120, 180, 240, 360, 480, 720, 1410 and 1440 minutes from the time of feeding. Any remaining food was removed 20 min after it was first presented to the dogs. To establish a method for extending the elevated plateau of SBA, 6 dogs were given the meal at 0 hr and an additional ½ size meal again 4 hr after their first meal. Blood samples were taken at 0, 1, 2, 3, 4, 4.5, 6, 7 and 8 hr. The curves for SBA level vs time obtained in these experiments were used as references for determining blood sampling times in experiments with LUM001. Wherever possible, experimental design permitting, in experiments with test compound, each dog served as its own simultaneous control, and the mean 1 hr SBA value served as the reference to which all other mean values were compared.\nLUM001 was administered at 0, 0.01, 0.05, 0.2 and 1 mg/kg, p.o. to dogs, n=6, 1 hr after feeding the standard experimental meal. Blood samples for SBA measurement were taken at −30, 0, 30, 60, 65, 70, 80, 90, 120 and 180 minutes from the time of feeding. Each dog served as its own control, and mean SBA levels were compared to the mean SBA level at 60 minutes."}, "Dog Serum Bile Acids [2]": {"tested_on": "Dog Serum Bile Acids", "test": "Duration of action of LUM001 on dog serum bile acids, Method 2: one meal, extended interval between dosing and feeding", "type": "in vivo, beagle dogs", "conditions": "for Serum Bile Acid, Mean: dogs n = 6, 0.2 mg/kg p.o., dosing time 0 hr, feeding time 2 hr", "procedure": "as §1, §2, §3\nIn dogs a single experimental meal produces a postprandial rise in SBA that is elevated to a peak at 1 hour after feeding and constant for an additional 3 hours. Previous experiments (2) indicate that LUM001 remains active for more than 4.5 hours. To measure the duration of action of an ASBT inhibitor using postprandial SBA levels requires that in the control situation the SBA levels remain elevated and constant for the entire period of compound action, or that the compound be administered long before the postprandial rise occurs, and remain active in the empty digestive system for long periods before feeding. Accordingly, two alternative methods were used to provide a window of constant SBA elevation that could be used to measure the duration of action of ASBT inhibitors.\nAlternatively, 6 dogs were dosed with water or LUM001, at 0.05 mg/kg, p.o. at 1.5 hours prior to being fed, or 0.05, or 0.2 mg/kg, at 2 hours prior to feeding. This moved the elevated SBA plateau out in time from the dose point. Blood samples for SBA measurement were taken immediately before dosing (0 or 0.5 hr), at feeding (2 hr), 2.5, 3, 4 and 5 hours after feeding. This allowed detection of activity out to 5.5 and 6 hours after dosing without feeding the dogs a second time. Mean SBA levels were compared to the corresponding mean SBA levels in water treated controls."}, "Dog Serum Bile Acids [3]": {"tested_on": "Dog Serum Bile Acids", "conditions": "dogs; previous experiments (2); cited from earlier work"}, "[4]": {"conditions": "dogs, 1 mg/kg orally 1 hour after feeding"}}, "note": "Marks after values point to notes of the source that are not given here.", "data": [{"smiles": "CCCCC1(CCCC)CS(=O)(=O)c2ccc(N(C)C)cc2[C@@H](c2ccc(OCc3ccc(C[N+]45CCN(CC4)CC5)cc3)cc2)[C@H]1O", "note": "[LUM001]", "values": [{"measurement": "Threshold dose for significant SBA lowering", "setting": "Dog Serum Bile Acids [1]; dog SBA model, oral", "value": 0.05, "unit": "mg/kg"}, {"measurement": "Serum Bile Acid, Mean", "setting": "Dog Serum Bile Acids [1]; 0.01 mg/kg p.o., time 0 min", "value": 1.4, "unit": "µg/mL"}, {"measurement": "Serum Bile Acid, Mean", "setting": "Dog Serum Bile Acids [1]; 0.01 mg/kg p.o., time 30 min", "value": 5.8, "unit": "µg/mL"}, {"measurement": "Serum Bile Acid, Mean", "setting": "Dog Serum Bile Acids [1]; 0.01 mg/kg p.o., time 60 min", "value": 14.6, "unit": "µg/mL"}, {"measurement": "Serum Bile Acid, Mean", "setting": "Dog Serum Bile Acids [1]; 0.01 mg/kg p.o., time 65 min", "value": 13.9, "unit": "µg/mL"}, {"measurement": "Serum Bile Acid, Mean", "setting": "Dog Serum Bile Acids [1]; 0.01 mg/kg p.o., time 70 min", "value": 14.1, "unit": "µg/mL"}, {"measurement": "Serum Bile Acid, Mean", "setting": "Dog Serum Bile Acids [1]; 0.01 mg/kg p.o., time 80 min", "value": 12.8, "unit": "µg/mL"}, {"measurement": "Serum Bile Acid, Mean", "setting": "Dog Serum Bile Acids [1]; 0.01 mg/kg p.o., time 90 min", "value": 11.0, "unit": "µg/mL"}, {"measurement": "Serum Bile Acid, Mean", "setting": "Dog Serum Bile Acids [1]; 0.01 mg/kg p.o., time 120 min", "value": 10.6, "unit": "µg/mL"}, {"measurement": "Serum Bile Acid, Mean", "setting": "Dog Serum Bile Acids [1]; 0.01 mg/kg p.o., time 180 min", "value": 11.0, "unit": "µg/mL"}, {"measurement": "Serum Bile Acid, Mean", "setting": "Dog Serum Bile Acids [1]; 0.01 mg/kg p.o., time −30 min", "value": 1.5, "unit": "µg/mL"}, {"measurement": "Serum Bile Acid, Mean", "setting": "Dog Serum Bile Acids [1]; 0.05 mg/kg p.o., time 0 min", "value": 2.1, "unit": "µg/mL"}, {"measurement": "Serum Bile Acid, Mean", "setting": "Dog Serum Bile Acids [1]; 0.05 mg/kg p.o., time 30 min", "value": 6.8, "unit": "µg/mL"}, {"measurement": "Serum Bile Acid, Mean", "setting": "Dog Serum Bile Acids [1]; 0.05 mg/kg p.o., time 60 min", "value": 10.4, "unit": "µg/mL"}, {"measurement": "Serum Bile Acid, Mean", "setting": "Dog Serum Bile Acids [1]; 0.05 mg/kg p.o., time 65 min", "value": 12.2, "unit": "µg/mL"}, {"measurement": "Serum Bile Acid, Mean", "setting": "Dog Serum Bile Acids [1]; 0.05 mg/kg p.o., time 70 min", "value": 12.0, "unit": "µg/mL"}, {"measurement": "Serum Bile Acid, Mean", "setting": "Dog Serum Bile Acids [1]; 0.05 mg/kg p.o., time 80 min", "value": 10.0, "unit": "µg/mL"}, {"measurement": "Serum Bile Acid, Mean", "setting": "Dog Serum Bile Acids [1]; 0.05 mg/kg p.o., time 90 min", "value": 8.8, "unit": "µg/mL"}, {"measurement": "Serum Bile Acid, Mean", "setting": "Dog Serum Bile Acids [1]; 0.05 mg/kg p.o., time 120 min", "value": "6.5* μg/ml"}, {"measurement": "Serum Bile Acid, Mean", "setting": "Dog Serum Bile Acids [1]; 0.05 mg/kg p.o., time 180 min", "value": "6.5* μg/ml"}, {"measurement": "Serum Bile Acid, Mean", "setting": "Dog Serum Bile Acids [1]; 0.05 mg/kg p.o., time −30 min", "value": 1.4, "unit": "µg/mL"}, {"measurement": "Serum Bile Acid, Mean", "setting": "Dog Serum Bile Acids [1]; 0.2 mg/kg p.o., time 0 min", "value": 1.9, "unit": "µg/mL"}, {"measurement": "Serum Bile Acid, Mean", "setting": "Dog Serum Bile Acids [1]; 0.2 mg/kg p.o., time 30 min", "value": 9.1, "unit": "µg/mL"}, {"measurement": "Serum Bile Acid, Mean", "setting": "Dog Serum Bile Acids [1]; 0.2 mg/kg p.o., time 60 min", "value": 19.1, "unit": "µg/mL"}, {"measurement": "Serum Bile Acid, Mean", "setting": "Dog Serum Bile Acids [1]; 0.2 mg/kg p.o., time 65 min", "value": 14.9, "unit": "µg/mL"}, {"measurement": "Serum Bile Acid, Mean", "setting": "Dog Serum Bile Acids [1]; 0.2 mg/kg p.o., time 70 min", "value": 16.7, "unit": "µg/mL"}, {"measurement": "Serum Bile Acid, Mean", "setting": "Dog Serum Bile Acids [1]; 0.2 mg/kg p.o., time 80 min", "value": 14.3, "unit": "µg/mL"}, {"measurement": "Serum Bile Acid, Mean", "setting": "Dog Serum Bile Acids [1]; 0.2 mg/kg p.o., time 90 min", "value": "9.8* μg/ml"}, {"measurement": "Serum Bile Acid, Mean", "setting": "Dog Serum Bile Acids [1]; 0.2 mg/kg p.o., time 120 min", "value": "4.8* μg/ml"}, {"measurement": "Serum Bile Acid, Mean", "setting": "Dog Serum Bile Acids [1]; 0.2 mg/kg p.o., time 180 min", "value": 4.0, "unit": "µg/mL"}, {"measurement": "Serum Bile Acid, Mean", "setting": "Dog Serum Bile Acids [1]; 0.2 mg/kg p.o., time −30 min", "value": 2.4, "unit": "µg/mL"}, {"measurement": "Serum Bile Acid, Mean", "setting": "Dog Serum Bile Acids [1]; 1 mg/kg p.o., time 0 min", "value": 2.6, "unit": "µg/mL"}, {"measurement": "Serum Bile Acid, Mean", "setting": "Dog Serum Bile Acids [1]; 1 mg/kg p.o., time 30 min", "value": 7.6, "unit": "µg/mL"}, {"measurement": "Serum Bile Acid, Mean", "setting": "Dog Serum Bile Acids [1]; 1 mg/kg p.o., time 60 min", "value": 13.8, "unit": "µg/mL"}, {"measurement": "Serum Bile Acid, Mean", "setting": "Dog Serum Bile Acids [1]; 1 mg/kg p.o., time 65 min", "value": 13.5, "unit": "µg/mL"}, {"measurement": "Serum Bile Acid, Mean", "setting": "Dog Serum Bile Acids [1]; 1 mg/kg p.o., time 70 min", "value": 15.4, "unit": "µg/mL"}, {"measurement": "Serum Bile Acid, Mean", "setting": "Dog Serum Bile Acids [1]; 1 mg/kg p.o., time 80 min", "value": 12.1, "unit": "µg/mL"}, {"measurement": "Serum Bile Acid, Mean", "setting": "Dog Serum Bile Acids [1]; 1 mg/kg p.o., time 90 min", "value": "7.4* μg/ml"}, {"measurement": "Serum Bile Acid, Mean", "setting": "Dog Serum Bile Acids [1]; 1 mg/kg p.o., time 120 min", "value": "3.0* μg/ml"}, {"measurement": "Serum Bile Acid, Mean", "setting": "Dog Serum Bile Acids [1]; 1 mg/kg p.o., time 180 min", "value": "2.6* μg/ml"}, {"measurement": "Serum Bile Acid, Mean", "setting": "Dog Serum Bile Acids [1]; 1 mg/kg p.o., time −30 min", "value": 2.1, "unit": "µg/mL"}, {"measurement": "Time after dosing to significantly lowered serum bile acid levels", "setting": "Dog Serum Bile Acids [1]; dogs, 0.2 mg/kg orally 1 hour after feeding", "value": "≤ 30", "unit": "min"}, {"measurement": "Effect of increasing the dose above the ED50 level on onset time to significant SBA lowering", "setting": "Dog Serum Bile Acids [1]; [4]", "value": "did not shorten the onset time"}, {"measurement": "Time after dosing for which maximal SBA suppression was sustained", "setting": "Dog Serum Bile Acids [1]; [4]", "value": 2, "unit": "h"}, {"measurement": "Serum Bile Acid, Mean", "setting": "Dog Serum Bile Acids [2]; time 0 hr", "value": 1.3, "unit": "µg/mL"}, {"measurement": "Serum Bile Acid, Mean", "setting": "Dog Serum Bile Acids [2]; time 2 hr", "value": 1.7, "unit": "µg/mL"}, {"measurement": "Serum Bile Acid, Mean", "setting": "Dog Serum Bile Acids [2]; time 5 hr", "value": "7.9* μg/ml"}, {"measurement": "Time after feeding for which a significant SBA effect was sustained", "setting": "Dog Serum Bile Acids [2]; dogs, 0.2 mg/kg administered 2 hours prior to feeding", "value": "2 to 3", "unit": "h"}, {"measurement": "Time LUM001 remains active", "setting": "Dog Serum Bile Acids [3]", "value": "more than 4.5 hours"}]}]}
